Experimental data published in patent publication US12319664B2, “Herbicidally active 3-phenylisoxazoline-5-carboxamides of cyclopentenylcarboxylic acid derivatives” (Bayer Aktiengesellschaft, priority 2018, dated 2025).

What was measured:
MATIN = assay: Post-emergence herbicidal action against MATIN; type: in vivo, Matricaria inodora; conditions: application rate 80 g/ha, rated visually about 3 weeks after treatment
Procedure: [table] 2. Post-emergence herbicidal action against harmful plants and crop plant compatibility Seeds of monocotyledonous and dicotyledonous weeds and crop plants are placed in sandy loam in plastic or wood-fibre pots, covered with soil and cultivated in a greenhouse under controlled growth conditions. 2 to 3 weeks after sowing, the test plants are treated at the one-leaf stage. The compounds of the invention, formulated in the form of wettable powders (WP) or as emulsion concentrates (EC), are then sprayed onto the green parts of the plants as aqueous suspension or emulsion with addition of 0.5% additive at a water application rate of 600 l/ha (converted). After the test plants have been kept in the greenhouse under optimum growth conditions for about 3 weeks, the activity of the preparations is rated visually in comparison to untreated controls. For example, 100% activity=the plants have died, 0% activity=like control plants.

POLCO = assay: Post-emergence herbicidal action against POLCO; type: in vivo, Polygonum convolvulus; conditions: application rate 80 g/ha, rated visually about 3 weeks after treatment
How it was run: (§1)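 One-leaf-stage plants (2–3 weeks after sowing in sandy loam) received a foliar spray of WP- or EC-formulated compound in water with 0.5% additive at 600 l/ha. Plants stayed under optimum greenhouse conditions for about 3 weeks before visual scoring against controls.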

ECHCG = assay: Post-emergence herbicidal action against ECHCG; type: in vivo, Echinochloa crus-galli; conditions: application rate 80 g/ha, rated visually after about 3 weeks
How it was run: as §1

HORMU = assay: Post-emergence herbicidal action against HORMU; type: in vivo, Hordeum murinum; conditions: application rate 80 g/ha
How it was run: as §1

STEME = assay: Post-emergence herbicidal action against STEME; type: in vivo, Stellaria media; conditions: application rate 80 g/ha, rated visually about 3 weeks after treatment
How it was run: as §1

AVEFA = assay: Post-emergence herbicidal action against AVEFA; type: in vivo, Avena fatua; conditions: application rate 80 g/ha, rated visually after about 3 weeks
How it was run: as §1

AMARE = assay: Post-emergence herbicidal action against AMARE; type: in vivo, Amaranthus retroflexus; conditions: application rate 80 g/ha, rated visually about 3 weeks after treatment
How it was run: as §1

ALOMY = assay: Post-emergence herbicidal action against ALOMY; type: in vivo, Alopecurus myosuroides; conditions: application rate 80 g/ha, rated visually after about 3 weeks
How it was run: as §1

VERPE = assay: Post-emergence herbicidal action against VERPE; type: in vivo, Veronica persica; conditions: application rate 80 g/ha
How it was run: as §1

LOLRI = assay: Post-emergence herbicidal action against LOLRI; type: in vivo, Lolium rigidum; conditions: application rate 80 g/ha, rated visually after about 3 weeks
How it was run: as §1

SETVI = assay: Post-emergence herbicidal action against SETVI; type: in vivo, Setaria viridis; conditions: application rate 80 g/ha, rated visually after about 3 weeks
How it was run: as §1

ABUTH = assay: Post-emergence herbicidal action against ABUTH; type: in vivo, Abutilon theophrasti; conditions: application rate 80 g/ha, rated visually about 3 weeks after treatment
How it was run: as §1

VIOTR = assay: Post-emergence herbicidal action against VIOTR; type: in vivo, Viola tricolor; conditions: application rate 80 g/ha, rated visually about 3 weeks after treatment
How it was run: as §1

PHBPU = assay: Post-emergence herbicidal action against PHBPU; type: in vivo, Pharbitis purpurea; conditions: application rate 80 g/ha, rated visually about 3 weeks after treatment
How it was run: as §1

Structure (SMILES)	Herbicidal action against [%] MATIN (MATIN) [%]	Herbicidal action against [%] POLCO (POLCO) [%]	Herbicidal action against [%] ECHCG (ECHCG) [%]	Herbicidal action against [%] HORMU (HORMU) [%]	Herbicidal action against [%] STEME (STEME) [%]	Herbicidal action against [%] AVEFA (AVEFA) [%]	Herbicidal action against [%] AMARE (AMARE) [%]	Herbicidal action against [%] ALOMY (ALOMY) [%]	Herbicidal action against [%] VERPE (VERPE) [%]	Herbicidal action against [%] LOLRI (LOLRI) [%]	Herbicidal action against [%] SETVI (SETVI) [%]	Herbicidal action against [%] ABUTH (ABUTH) [%]	Herbicidal action against [%] VIOTR (VIOTR) [%]	Herbicidal action against [%] PHBPU (PHBPU) [%]
CCOC(=O)C1C=CC(NC(=O)C2(C#N)CC(c3cc(F)cc(F)c3)=NO2)C1 (centres unmarked) [Example I-104]	80	90	80	90	80	80	80	90	80	90	–	–	–	–
C=CC1(C(=O)NC2C=CC(C(=O)O)C2)CC(c2cc(F)cc(F)c2)=NO1 (centres unmarked) [Example I-011]	80	80	90	80	90	90	–	90	80	90	80	–	–	–
O=C(OCC(F)(F)F)C1C=CC(NC(=O)C2(C(F)(F)F)CC(c3cc(Cl)cc(Cl)c3)=NO2)C1 (mixture of isomers) [Example I-041]	80	–	80	90	80	90	–	–	–	80	–	80	–	–
COC(=O)C1C=CC(NC(=O)C2(C(F)(F)F)CC(c3cccc(C#N)c3)=NO2)C1 (mixture of isomers) [Example I-087]	–	90	80	100	90	100	90	100	90	100	80	90	90	90
N#Cc1cc(F)cc(C2=NOC(C(=O)N[C@H]3C=C[C@@H](C(=O)OCC(F)(F)F)C3)(C(F)(F)F)C2)c1 (some centres unmarked) [Example I-096]	–	90	80	100	90	100	90	100	90	100	80	90	90	90
C=CC1(C(=O)N[C@H]2CC=C(C(=O)O)C2)CC(c2cc(F)cc(F)c2)=NO1 (some centres unmarked) [III-09]	–	90	90	100	90	100	90	90	90	100	80	80	90	90
N#Cc1cccc(C2=NOC(C(=O)NC3C=CC(C(=O)O)C3)(C(F)(F)F)C2)c1 (mixture of isomers) [Example I-085]	–	80	90	100	80	100	90	90	90	100	80	90	80	90
C=CC1(C(=O)N[C@H]2CC=C(C(=O)OCC)C2)CC(c2cc(F)cc(F)c2)=NO1 (some centres unmarked) [III-17]	–	80	80	90	90	90	90	100	90	90	80	80	80	90
COC(=O)C1C=CC(NC(=O)C2(C)CC(c3cc(F)cc(C#N)c3)=NO2)C1 (mixture of isomers) [Example I-084]	–	90	90	100	100	100	90	100	90	100	90	90	90	90
CC(C)(C#N)NC(=O)C1C=CC(NC(=O)C2(C(F)(F)F)CC(c3cc(F)cc(F)c3)=NO2)C1 (mixture of isomers) [II-34]	–	90	80	80	90	100	90	90	90	90	80	80	90	90
N#Cc1cc(F)cc(C2=NOC(C(=O)NC3C=CC(C(=O)O)C3)(C(F)(F)F)C2)c1 (mixture of isomers) [Example I-090]	–	90	80	100	90	100	90	100	90	100	90	90	90	90
